Results on 2 compounds are retold here after patent publication US7375190B2, “Recombinant protein and method of screening for agents that modulate polypeptide aggregation” (priority 2006, dated 2008).

The structures appear in SMILES notation. Counter-ions that a name gives are not always drawn.

Experiment [1] has as its system polyglutamine protein aggregation. To be noted: cited from earlier work.
The next experiment deals with neurodegeneration. To be noted: in vivo; cited from earlier work.
The subject of experiment [2] is 97Q-ADE2. Briefly: colony-color assay of yeast cells expressing 97Q-ADE2 on adenine low medium. It counts as cell-based.
In experiment [3] the test system is 97Q-ADE2. Briefly: filter trap assay on cellulose acetate membrane for 97Q-ADE2 aggregates. The format is cell-based, yeast. The method, then: Therefore, this unique physical characteristic of the aggregates could be detected biochemically using a filter trap assay in which only proteins with size more than 0.2 micrometers retain on a cellulose acetate membrane (Scherzinger et al., 1997, Cell 90, 549-558). In order to validate the colony-color phenotypes observed in the genetic experiments were caused by the formation of ADE2 protein aggregates, cell lysates were prepared and subjected to filter trap assays.
The experimental procedures for slot-blot assay were following: Nitrocellulose (NC) membrane was pre-wetted with TBS (20 mM Tris, 500 mM NaCl), then assembled into Bio-Dot apparatus (BIO-RAD) in which 3 filter papers (BIO-RAD) were on the bottom as a support and NC membrane was on the top. After assembly of the Bio-Dot apparatus, 200 μl TBS buffer was added into each loading well to rinse the membrane followed by the addition of diluted cell lysate (3 μl prepared cell lysate mixed with 197 μl TBS buffer). When the lysate has completely drained from the apparatus by gravity, 200 μl TBS buffer was loaded again to reduce residual proteins within the loading well. Following the step of TBS wash, 200 μl TTBS (20 mM Tris, 500 mM NaCl, and 0.05% Tween 20) was applied as washing buffer and the solution was sucked out by vacuum pump. The membrane was subjected to TTBS wash twice followed by removal of the membrane from the Bio-Dot apparatus and detection of trapped proteins by Western blotting. […] The signal for the immuno-blotting was detected by enhanced chemiluminescence (ECL) reagents. […]
In order to confirm the change of phenotype observed was caused by the alteration of protein solubility, the combination of filter trap and slot blot assays was applied for detecting the level of polyglutamine protein aggregates within these cells. […] Thus, the reduction of polyglutamine protein aggregation caused by Hsp104p inhibitor was tightly associated with the change of cellular phenotype and could be visibly detected by the colony color system.

The target of a further experiment is T1, Hsp104p (Saccharomyces cerevisiae, UniProt P31539).
T1 construct: cellular Hsp104p is required for two similar types of protein aggregation in yeast cells; host or cells: yeast cells (endogenous Hsp104p)
T1 sequence (P31539 whole entry): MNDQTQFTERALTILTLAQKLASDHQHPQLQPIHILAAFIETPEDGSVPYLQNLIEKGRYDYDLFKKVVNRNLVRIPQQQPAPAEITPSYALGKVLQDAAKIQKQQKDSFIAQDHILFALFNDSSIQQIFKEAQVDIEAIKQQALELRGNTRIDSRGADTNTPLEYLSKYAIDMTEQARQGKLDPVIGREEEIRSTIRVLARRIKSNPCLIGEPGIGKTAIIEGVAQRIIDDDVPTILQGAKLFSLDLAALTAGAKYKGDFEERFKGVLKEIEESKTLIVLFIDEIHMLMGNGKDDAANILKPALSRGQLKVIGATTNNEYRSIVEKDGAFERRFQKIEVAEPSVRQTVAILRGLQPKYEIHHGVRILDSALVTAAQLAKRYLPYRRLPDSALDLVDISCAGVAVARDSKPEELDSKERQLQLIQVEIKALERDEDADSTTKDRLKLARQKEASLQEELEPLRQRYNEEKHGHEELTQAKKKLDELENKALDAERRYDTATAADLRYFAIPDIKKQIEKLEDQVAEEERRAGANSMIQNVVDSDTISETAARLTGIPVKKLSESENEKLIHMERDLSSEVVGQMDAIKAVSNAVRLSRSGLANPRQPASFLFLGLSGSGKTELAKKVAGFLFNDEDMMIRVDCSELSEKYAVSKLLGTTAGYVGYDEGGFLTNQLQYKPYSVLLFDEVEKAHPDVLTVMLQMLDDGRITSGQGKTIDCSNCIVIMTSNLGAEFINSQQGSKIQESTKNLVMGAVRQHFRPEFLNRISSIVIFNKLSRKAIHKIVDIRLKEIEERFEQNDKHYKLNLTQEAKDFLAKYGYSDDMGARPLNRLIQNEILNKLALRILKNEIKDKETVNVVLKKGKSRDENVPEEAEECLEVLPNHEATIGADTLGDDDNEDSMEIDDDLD
The settings on record: 3-5 mM; cited from earlier work.

Another experiment relates to 25Q-ADE2. Briefly: colony-color assay of yeast cells expressing 25Q-ADE2 on adenine low medium. It counts as cell-based. The settings on record: guanidine hydrochloride 0, 1, 3 and 5 mM; 10-cm Petri dish; FIG. 3(A).
The subject of experiment [4] is cells that did not express 97Q-ADE2. Briefly: colony-color control on glucose media, cells that did not express 97Q-ADE2, 48-well microplate. The settings on record: 0, 1, 3 and 5 mM, FIG. 4 first row. The format is cell-based, yeast. The method, then: Plate preparation for colony-color assay was as following: 6.7 g of yeast nitrogen base lacking amino acids, 20 g of Bacto agar and 1.3 g of drop-out mix that contain amino acids supplement necessary for viable and selective growth of the transformed cells were added to 900 ml of H2O according to Burke et al. (Burke et al., Methods in Yeast Genetics, 2000 Edition, Gold Spring Harbor Laboratory Press, 171-175). Carbon source, either glucose or galactose, and filter-sterilized adenine were added after autoclaving to final concentrations of 2% and 4 mg/l, respectively. For preparation of media containing guanidine hydrochloride, the chemical reagent was added simultaneously with carbon source and adenine to final concentrations of […] as indicated. There were about 20 ml of medium in each 10 cm petri dish and 0.2 ml of medium in each well of 48-well microplate.
For the purpose of drug screening, small volume of medium for examining the colony color phenotype of cells has advantage in saving the amount of candidate compound tested. […] With glucose or galactose as carbon source, the transformed cells were grown on adenine low media containing guanidine hydrochloride at a final concentration of 0, 1, 3 and 5 mM as indicated. […]

As to `C[C@@H](N)[C@H]1CC[C@H](C(=O)Nc2ccncc2)CC1` [Y-27632], the polyglutamine protein aggregation entry in experiment [1] is “diminished polyglutamine protein aggregation”. Besides, the “neurodegeneration in an animal model” value with neurodegeneration is on record as “reduced neurodegeneration”.

Regarding `N=C(N)N` [guanidine hydrochloride], the “cellular color of 97Q-ADE2 expressing cells” value in the experiment on 97Q-ADE2 [2] (0, 1, 3 and 5 mM, 48-well microplate, galactose, FIG. 4 second row) is given as “changed their cellular colors from red to white”. Further, the “appearance of colony color, 97Q-ADE2 versus 25Q-ADE2 cells” value in the experiment with 97Q-ADE2 [2] (5 mM, 10-cm Petri dish) is “indistinguishable between cells expressing 25Q-ADE2 and 97Q-ADE2”. The “cellular color phenotype of cells expressing 97Q-ADE2” value in the experiment on 97Q-ADE2 [2] (guanidine hydrochloride 0, 1, 3 and 5 mM, adenine low media, 10-cm Petri dish, FIG. 3(A)) is “changed from red to pink and white as a function of guanidine hydrochloride concentration”. Moreover, the “97Q-ADE2 fusion protein trapped on cellulose acetate membrane” value is “significant amount of the fusion protein was trapped” in the experiment on 97Q-ADE2 [3] (1 mM, FIG. 3(B) lane 3); “little” in the experiment on 97Q-ADE2 [3] (3 mM, continuous treatment, FIG. 3(B) lane 4); “no signal” with 97Q-ADE2 [3] (5 mM, continuous treatment, FIG. 3(B) lane 5). Besides, the “activity of Hsp104p” value at Hsp104p is “substantially reduces the activity of Hsp104p”. For the same compound, the “colony color of cells expressing 25Q-ADE2” value with 25Q-ADE2 is reported as “constantly showed colony color of white”. The “colony color of cells that did not express 97Q-ADE2” value in experiment [4] is reported as “the cellular phenotype remained the same”.
